Test results reported in patent publication US11286242B2 (priority 2018, dated 2022).

Assays:
Botrytis cinerea = Botrytis cinerea (gray mold) radial mycelial growth on Potato Dextrose Agar; assay type: cell-based; settings: 168 h, 22° C., 90% relative humidity, seven days, read-out: control compared to the untreated check
Experimental: Example 3: Botrytis cinerea (Gray Mold)
(§1) Compounds were dissolved in 0.3% DMSO & then added to Potato Dextrose Agar medium just prior to dispensing it into petri dishes. 5 mL medium with compound in the desired concentration was dispensed into 60 mm sterile petri-plates. After solidification, each plate was seeded with 5 mm size mycelial disc taken form periphery of actively growing virulent culture plate. Plates were incubated in growth chambers at 22° C. temperature and 90% relative humidity for seven days and radial growth was measured.

Colletotrichum capsici = Colletotrichum capsici (anthracnose) radial mycelial growth on Potato Dextrose Agar; assay type: cell-based; settings: Colletotrichum truncatum, 168 h, 25° C., 60% relative humidity, seven days, read-out: control compared to the untreated check
Experimental: Example 5: Colletotrichum capsici (Anthracnose)
as §1, with “25°” for “22°”, “60%” for “90%”

Pyricularia oryzae = assay: microbe, parasite or virus in culture; assay type: cell-based; settings: 168 h, read-out: control compared to the untreated check
Alternaria solani = Alternaria solani (early blight of tomato/potato) radial mycelial growth on Potato Dextrose Agar; assay type: cell-based; settings: 168 h, Potato Dextrose Agar, 25° C., 60% relative humidity, seven days, read-out: control compared to the untreated check
Experimental: Example 4: Alternaria solani (Early Blight of Tomato/Potato)
as §1, with “solidification” for “solidification,”, “25°” for “22°”, “60%” for “90%”

Phakopsora pachyrhizi = Phakopsora pachyrhizi test in soybean, preventive spray; assay type: in vivo; settings: preventive spray on soybean plants, inoculated one day after treatment, greenhouse 25° C., 90% relative humidity, read-out: control (efficacy, disease severity rating) compared to the untreated check
Summary of the method: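 Greenhouse soybean plants were sprayed preventively at the stated rates, with compound in 2% DMSO/acetone diluted in water. They were inoculated one day later with a 2.1×10^6 P. pachyrhizi spore suspension and held at 25° C and 90% RH. Severity (0–100%) was rated 3, 7, 10 and 15 days after application, giving % control versus untreated plants.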

Septoria lycopersici = Septoria lycopersici (leaf spot of tomato) radial mycelial growth on Potato Dextrose Agar; assay type: cell-based; settings: 300 ppm, 25° C., 70% relative humidity, seven days
Experimental: Example 6: Septoria lycopersici (Leaf Spot of Tomato)
as §1, with “25°” for “22°”, “70%” for “90%”

Row | SMILES | inhibition of growth at 300 ppm (Botrytis cinerea) | inhibition of growth at 300 ppm (Colletotrichum capsici) | inhibition of growth at 300 ppm (Pyricularia oryzae) | inhibition of growth at 300 ppm (Alternaria solani) | pest or weed control at 500 ppm (Phakopsora pachyrhizi) | control compared to the untreated check (Septoria lycopersici)
1 | O=C(NS(=O)(=O)c1ccc(Cl)cc1Cl)c1ccc(-c2noc(C(F)(F)F)n2)cc1 [Compound 156, N-((2,4-dichlorophenyl)sulfonyl)-4-(5-(trifluoromethyl)-1,2,4-oxadiazol-3-yl)benzamide] | > 70% | > 70% | – | – | – | –
2 | CS(=O)(=Nc1ccc(-c2noc(C(F)(F)F)n2)cc1)c1ccc(Cl)cc1 (centres unmarked) [Compound 13, (4-chlorophenyl)(methyl)((4-(5-(trifluoromethyl)-1,2,4-oxadiazol-3-yl)phenyl)imino)-λ^6-sulfanone] | – | > 70% | > 70% | > 70% | – | –
3 | CS(=O)(=Nc1ccc(-c2noc(C(F)(F)F)n2)cc1)c1ccncc1 (centres unmarked) [Compound 15, methyl(pyridin-4-yl)((4-(5-(trifluoromethyl)-1,2,4-oxadiazol-3-yl)phenyl)imino)-λ^6-sulfanone] | > 70% | > 70% | > 70% | > 70% | > 90% | –
4 | CS(=O)(=NCc1ccc(-c2noc(C(F)(F)F)n2)cc1)c1ccc(Br)cc1 (centres unmarked) [Compound 22, (4-bromophenyl)(methyl)((4-(5-(trifluoromethyl)-1,2,4-oxadiazol-3-yl)benzyl)imino)-λ^6-sulfanone] | – | > 70% | > 70% | – | > 90% | –
5 | COc1ccc(S(C)(=O)=NCc2ccc(-c3noc(C(F)(F)F)n3)cc2)cc1 (centres unmarked) [Compound 23, (4-methoxyphenyl)(methyl)((4-(5-(trifluoromethyl)-1,2,4-oxadiazol-3-yl)benzyl)imino)-λ^6-sulfanone] | > 70% | > 70% | > 70% | > 70% | > 90% | –
6 | CS(=O)(=Nc1ccc(-c2noc(C(F)(F)F)n2)cc1)c1ccc(F)cc1 (centres unmarked) [Compound 17, (4-fluorophenyl)(methyl)((4-(5-(trifluoromethyl)-1,2,4-oxadiazol-3-yl)phenyl)imino)-λ^6-sulfanone] | > 70% | > 70% | > 70% | > 70% | > 90% | –
7 | O=S1(=Nc2ccc(-c3noc(C(F)(F)F)n3)cc2)CCCCC1 [Compound 134, 1-((4-(5-(trifluoromethyl)-1,2,4-oxadiazol-3-yl)phenyl)imino)hexahydro-1λ^6-thiopyran 1-oxide] | – | – | > 70% | – | – | more than 70%
8 | O=S1(=Nc2ccc(-c3noc(C(F)(F)F)n3)cc2)CCOCC1 [Compound 133, 4-((4-(5-(trifluoromethyl)-1,2,4-oxadiazol-3-yl)phenyl)imino)-1,4λ^6-oxathiane 4-oxide] | > 70% | > 70% | > 70% | – | – | –
9 | CS(=O)(=Nc1ccc(-c2noc(C(F)(F)F)n2)cc1)c1ccccc1 (centres unmarked) [Compound 18, methyl(phenyl)((4-(5-(trifluoromethyl)-1,2,4-oxadiazol-3-yl)phenyl)imino)-λ^6-sulfanone] | – | > 70% | > 70% | > 70% | > 90% | –
